Data set [1] deals with T1, CDK4/cyclin D1 (Homo sapiens, UniProt P11802).
T1 construct: made in house; host or cells: insect cells infected with baculoviruses
Briefly: Inhibitory activity against CDK4/cyclin D1 enzyme (GST-RB phosphorylation, P32-γ-ATP, scintillation counting). It counts as biochemical. Particulars: CDK4/cyclin D1, 100 μM ATP, GST-RB substrate, 30° C. 30 minutes. The protocol: (§1) Analysis of inhibitory activity against CDK2/cyclin A and CDK4/cyclin D1 enzyme.
(§2) The inhibitory activity against CDK2 is measured by referring to Kitagawa, M. et al., Oncogene 9:2549, 1994 and the inhibitory activity against CDK4 is measured by referring to Carlson, B. A. et al., Cancer Research 56:2473,1996.
(§3) As for CDK2, either the extract from the insect cell infected both with baculovirus which expresses CDK2 gene and baculovirus which expresses cyclin A gene or the active enzyme which had been purified therefrom was used. CDK4 enzyme was also obtained from the insect cell infected both with baculovirus expressing CDK4 gene and baculovirus expressing cyclin D1 gene. As the substrate for CDK2, either histon H1 or Rb protein was used. Rb protein was also used as the substrate for CDK4.
(§4) Specifically the activities of enzymes CDK2/cyclin A and CDK4/cyclin D1 were determined according to the following procedure.
(§5) 100 ng of enzyme was reacted in a total 1000 μl of 20 mM Tris (pH 8.0), 100 mM NaCl, 10 mM MgCl2 buffer solution containing 20 μg of GST-RB protein, 100 μM of ATP and 5 μCi of P32-γ-ATP at 30° C. for 30 minutes. Then, the enzyme reaction was stopped by adding EDTA to a concentration of 20 mM. Subsequently, 30 μl of 50% glutathione bead (purchased from Pharmacia) was added to attach GST-RB to the bead, which was washed three times with 20mM Tris (pH 8.0), 100 mM NaCl, 10 mM EDTA solution, and then scintillation counting was carried out. To analyze the inhibitory activity of the compound, the inhibitor having a proper concentration was added to the enzyme reaction solution, and then the enzyme activity was measured according to the above method.
(§6) The inhibitory activity of the compound of formula (1) according to the present invention against CDK2 and CDK4 is represented as IC50 value. The compounds which are not included in Examples(compound 63, 64, 65 and 66) were synthesized and purified according to the same procedure as examples, and then IC50 thereof was measured.

The nature of data set [2]: in vivo. The settings on record: male, ICR, mouse, po. As for the experimental part: The acute oral toxcities of the compounds 14, 17, 28, 39, 51 and 57 each of which is obtained in Examples 14, 17, 73,84, 96 and 102, respectively are investigated in the following.
Solutions containing a compound in several different concentrations from each other were prepared, and they were administered orally to ICR male mouse with a dose of 10 ml/kg.
After administration, lethality and symptoms for 7 days were observed, and LD50 (mg/kg) was calculated according to Litchfield-Wilcoxon' method.

Data set [3] has as its target T2, CDK2/cyclin A (Homo sapiens, UniProt P24941).
T2 construct: made in house; host or cells: insect cells infected with baculoviruses
Briefly: Inhibitory activity against CDK2/cyclin A enzyme (GST-RB phosphorylation, P32-γ-ATP, scintillation counting). In kind it is biochemical. The settings on record: 100 μM ATP, GST-RB substrate, 30° C. 30 minutes. The protocol: as §1, §2, §3, §4, §5, §6

The values that follow come from patent US6500846B1, “CDK inhibitors having flavone structure” (LG Chemical, Ltd., priority 1998, dated 2002).

Each structure is given as a SMILES string.

T1 sequence (P11802 whole entry, species assumed): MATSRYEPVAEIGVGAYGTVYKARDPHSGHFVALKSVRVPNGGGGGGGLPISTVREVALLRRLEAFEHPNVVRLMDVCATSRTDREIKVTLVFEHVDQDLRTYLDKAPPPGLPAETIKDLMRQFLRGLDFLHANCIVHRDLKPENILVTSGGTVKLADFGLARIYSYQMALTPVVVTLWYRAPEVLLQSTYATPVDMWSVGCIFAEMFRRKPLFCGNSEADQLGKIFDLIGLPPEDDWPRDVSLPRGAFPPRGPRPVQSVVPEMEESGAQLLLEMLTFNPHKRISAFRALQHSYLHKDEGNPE
T1 sequence (P24385 whole entry partner, species assumed): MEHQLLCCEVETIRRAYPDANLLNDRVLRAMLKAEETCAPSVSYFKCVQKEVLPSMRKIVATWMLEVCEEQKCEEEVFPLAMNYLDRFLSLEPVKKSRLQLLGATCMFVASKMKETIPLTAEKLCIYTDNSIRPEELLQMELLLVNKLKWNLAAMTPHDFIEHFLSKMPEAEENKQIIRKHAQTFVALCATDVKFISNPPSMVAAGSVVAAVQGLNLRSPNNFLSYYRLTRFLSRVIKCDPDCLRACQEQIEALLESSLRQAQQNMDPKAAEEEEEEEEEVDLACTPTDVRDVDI

With `O=c1c(O)c(-c2ccc(O)c(O)c2)oc2ccc(O)cc12` [Compound 14, 2-(3,4-dihydroxyphenyl)-3,6-dihydroxy-4H-chromen-4-one], the IC50 in data set [1] and in data set [3] was below 5 µM in each case. Moreover, the LD50 at 7 days in data set [2] is above 3000 mg/kg.

`O=c1c(O)c(-c2ccc(O)c(O)c2)oc2ccc(F)cc12` [Compound 17, 6-fluoro-2-(3,4-dihydroxyphenyl)-3-hydroxy-4H-chromen-4-one]: the IC50 in data set [1] and in data set [3] was below 10 µM each time. For the same compound, in data set [2], the LD50 at 7 days is above 3000 mg/kg.

`Cc1ccc(S(=O)(=O)Nc2ccc3oc(-c4ccc(O)c(O)c4)c(O)c(=O)c3c2)cc1` [Compound 28, N-[2-(3,4-dihydroxyphenyl)-3-hydroxy-4-oxo-4H-chromen-6-yl]-4-methylbenzenesulfonamide]: the IC50 in data set [1] worked out at 7.8 µM; in data set [3] it was 56 µM. In data set [2], this compound came in with an LD50 at 7 days above 3000 mg/kg.

`O=c1c(O)c(-c2ccc(O)c(O)c2)oc2ccc(NS(=O)(=O)c3ccc(C(F)(F)F)cc3)cc12` [Compound 39, N-[2-(3,4-dihydroxyphenyl)-3-hydroxy-4-oxo-4H-chromen-6-yl]-4-(trifluoromethyl)benzenesulfonamide]: the IC50 turned out to be 6.4 µM in data set [1] and 55 µM in data set [3]. The LD50 at 7 days in data set [2] was above 3000 mg/kg.

`CC(=O)Nc1ccc2oc(-c3ccc(O)c(O)c3)c(O)c(=O)c2c1` [Compound 51, N-[2-(3,4-dihydroxyphenyl)-3-hydroxy-4-oxo-4H-chromen-6-yl]acetamide]: the half-inhibitory concentration (IC50) in data set [1] and in data set [3] was 5.6 µM throughout. Also, the LD50 at 7 days in data set [2] was above 3000 mg/kg.

In the case of `O=C(NC(=O)c1ccccc1)Nc1ccc2oc(-c3ccc(O)c(O)c3)c(O)c(=O)c2c1` [Compound 57, N-benzoyl-N′-[2-(3,4-dihydroxyphenyl)-3-hydroxy-4-oxo-4H-chromen-6-yl]urea], the IC50 in data set [1] came to 18 µM; in data set [3] it was 22.4 µM. The compound further gave an LD50 at 7 days in data set [2] above 3000 mg/kg.

The term IC50 denotes the concentration that gives 50% inhibition. Broadly, the LD50 is the dose at which mortality reaches 50%. The low end stands for a more toxic substance, the high end for a less toxic substance.
